Results as given in US9309242B2, “Substituted pyrido[2,3-b]pyrazines as FGFR kinase inhibitors” (priority 2011, dated 2016).

Assays:
KDR (h) = KDR (h) (Homo sapiens, UniProt P35968); assay: KDR (VEGFR2) (enzymatic assay), TR-FRET; format: biochemical; conditions: average values if tested multiple times, read-out: VEGFR 2 (KDR) pIC50 (converted)
Method in brief: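 TR-FRET readout (ex 340, em 620/655 nm) in RFU after EDTA stop with Eu-anti-phosphotyrosine and SA-XL665 for 60 min. The preceding 120-min room-temperature kinase step used 150 ng/ml KDR (h), 3 μM ATP, 500 nM biotinylated Flt3 peptide, MnCl2-containing HEPES buffer pH 7.5, 1% DMSO.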

[1] = tested on: Ba/F3-Flt3-transfected cells; assay: Ba/F3-Flt3 (plus IL3) cellular proliferation assay, counterscreen with 10 ng/ml murine IL3; format: cell-based; conditions: plus IL3 (10 ng/ml murine IL3, counterscreen); read-out: BAF3_FLT3 (PLUS IL3) pIC50 (converted)
Description: (§1) Ba/F3-Flt3 (Minus IL3 or Plus IL3) (Cellular Proliferation Assay)
(§2) In a 384 well plate, 100 nl of compound dilution in DMSO was sprayed before adding 50 μl cell culture medium (phenol red free RPMI-1640, 10% FBS, 2 mM L-Glutamine and 50 μg/ml Gentamycin) containing 20000 cells per well of Ba/F3-Flt3-transfected cells. Cells were put in an incubator at 37° C. and 5% CO2. After 24 hours, 10 μl of Alamar Blue solution (0.5 mM K3Fe(CN)6, 0.5 mM K4Fe(CN)6, 0.15 mM Resazurin and 100 mM Phosphate Buffer) was added to the wells, incubated for 4 hours at 37° C. and 5% CO2 before RFU's (Relative Fluorescence Units) (ex. 540 nm., em. 590 nm.) were measured in a fluororescence plate reader.
As a counterscreen the same experiment was performed in the presence of 10 ng/ml murine IL3.

[2] = target: T1, Ba/F3-Flt3-transfected cells (Homo sapiens, UniProt P36888, cells depend on it, form not given); assay: Ba/F3-Flt3 (minus IL3) cellular proliferation assay, Alamar Blue; format: cell-based
T1 construct: BAF3-FLT3 (MIN IL3) pIC50; other: minus IL3
T1 sequence (P36888 1-993): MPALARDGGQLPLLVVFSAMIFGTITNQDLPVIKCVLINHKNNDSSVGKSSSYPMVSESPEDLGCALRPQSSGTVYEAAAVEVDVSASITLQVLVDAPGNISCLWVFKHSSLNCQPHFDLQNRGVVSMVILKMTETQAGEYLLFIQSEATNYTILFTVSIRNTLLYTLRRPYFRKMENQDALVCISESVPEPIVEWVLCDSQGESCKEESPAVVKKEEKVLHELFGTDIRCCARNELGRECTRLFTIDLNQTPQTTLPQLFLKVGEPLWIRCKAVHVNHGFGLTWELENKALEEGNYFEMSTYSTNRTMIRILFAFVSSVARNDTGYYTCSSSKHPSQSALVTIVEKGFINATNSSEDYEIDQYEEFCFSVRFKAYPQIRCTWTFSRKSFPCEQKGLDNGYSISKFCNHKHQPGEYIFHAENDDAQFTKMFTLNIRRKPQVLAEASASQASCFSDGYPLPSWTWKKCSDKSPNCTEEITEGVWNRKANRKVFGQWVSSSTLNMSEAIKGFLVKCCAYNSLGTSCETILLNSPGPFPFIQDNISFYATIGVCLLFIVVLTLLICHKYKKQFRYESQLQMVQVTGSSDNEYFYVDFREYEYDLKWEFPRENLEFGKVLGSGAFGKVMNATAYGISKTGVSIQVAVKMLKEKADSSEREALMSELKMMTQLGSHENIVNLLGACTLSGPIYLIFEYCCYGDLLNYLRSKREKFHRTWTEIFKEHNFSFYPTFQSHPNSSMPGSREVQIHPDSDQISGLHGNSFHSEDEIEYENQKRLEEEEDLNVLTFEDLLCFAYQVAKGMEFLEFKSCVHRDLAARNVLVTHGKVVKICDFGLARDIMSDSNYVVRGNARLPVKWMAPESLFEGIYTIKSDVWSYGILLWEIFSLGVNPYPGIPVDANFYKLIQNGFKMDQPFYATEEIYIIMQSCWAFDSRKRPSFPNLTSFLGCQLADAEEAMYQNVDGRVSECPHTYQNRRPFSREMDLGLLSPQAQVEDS
Description: as §1
as §2, with “reader. […]” for “reader.”

[3] = target: T2, Ba/F3-KDR-transfected cells (Homo sapiens, UniProt P35968); assay: Ba/F3-KDR (minus IL3) cellular proliferation assay, Alamar Blue; format: cell-based
T2 construct: BAF3-KDR (MIN IL3) pIC50; other: minus IL3
T2 sequence (P35968 whole entry, change not shown): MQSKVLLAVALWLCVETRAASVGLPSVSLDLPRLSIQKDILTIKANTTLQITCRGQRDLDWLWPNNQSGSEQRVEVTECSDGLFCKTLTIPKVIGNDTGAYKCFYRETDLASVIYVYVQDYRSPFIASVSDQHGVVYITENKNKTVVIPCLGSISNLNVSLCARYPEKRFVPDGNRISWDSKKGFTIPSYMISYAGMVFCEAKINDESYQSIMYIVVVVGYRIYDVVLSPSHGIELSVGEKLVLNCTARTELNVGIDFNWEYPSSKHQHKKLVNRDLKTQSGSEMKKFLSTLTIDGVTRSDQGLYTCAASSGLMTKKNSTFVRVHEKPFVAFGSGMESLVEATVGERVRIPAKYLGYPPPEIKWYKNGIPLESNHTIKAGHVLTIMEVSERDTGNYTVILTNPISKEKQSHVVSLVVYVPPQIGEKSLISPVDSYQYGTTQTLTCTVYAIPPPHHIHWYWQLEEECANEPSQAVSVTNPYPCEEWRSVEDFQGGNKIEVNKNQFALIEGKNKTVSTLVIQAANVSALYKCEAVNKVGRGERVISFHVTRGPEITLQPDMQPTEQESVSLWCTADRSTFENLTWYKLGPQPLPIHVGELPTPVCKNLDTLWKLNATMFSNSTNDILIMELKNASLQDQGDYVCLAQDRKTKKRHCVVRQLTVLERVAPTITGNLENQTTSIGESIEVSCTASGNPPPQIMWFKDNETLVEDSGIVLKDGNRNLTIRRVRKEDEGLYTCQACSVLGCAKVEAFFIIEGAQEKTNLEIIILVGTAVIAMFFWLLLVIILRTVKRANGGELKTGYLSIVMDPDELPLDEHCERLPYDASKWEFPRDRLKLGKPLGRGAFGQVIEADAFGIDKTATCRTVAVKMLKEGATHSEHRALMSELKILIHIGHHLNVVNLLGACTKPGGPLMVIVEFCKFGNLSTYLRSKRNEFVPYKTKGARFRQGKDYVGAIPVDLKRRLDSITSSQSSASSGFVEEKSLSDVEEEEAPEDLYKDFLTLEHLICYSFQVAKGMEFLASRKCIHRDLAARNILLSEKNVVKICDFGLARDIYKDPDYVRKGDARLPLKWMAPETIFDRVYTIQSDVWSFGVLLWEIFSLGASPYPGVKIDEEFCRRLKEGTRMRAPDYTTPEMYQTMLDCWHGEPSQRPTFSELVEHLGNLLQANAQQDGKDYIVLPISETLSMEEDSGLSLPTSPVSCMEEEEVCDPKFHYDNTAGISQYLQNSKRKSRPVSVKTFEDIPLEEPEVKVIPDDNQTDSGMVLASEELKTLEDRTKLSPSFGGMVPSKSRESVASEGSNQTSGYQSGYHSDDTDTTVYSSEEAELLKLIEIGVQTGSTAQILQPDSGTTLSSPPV
Method in brief: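 Proliferation read-out by Alamar Blue fluorescence (ex. 540 nm, em. 590 nm) after 4 hours, following 24 hours of compound treatment at 37° C of 20000 Ba/F3-KDR cells per well in RPMI-1640/10% FBS. Same protocol with 10 ng/ml murine IL3 serves as counterscreen.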

KDR (h), sequence (P35968 20-1356): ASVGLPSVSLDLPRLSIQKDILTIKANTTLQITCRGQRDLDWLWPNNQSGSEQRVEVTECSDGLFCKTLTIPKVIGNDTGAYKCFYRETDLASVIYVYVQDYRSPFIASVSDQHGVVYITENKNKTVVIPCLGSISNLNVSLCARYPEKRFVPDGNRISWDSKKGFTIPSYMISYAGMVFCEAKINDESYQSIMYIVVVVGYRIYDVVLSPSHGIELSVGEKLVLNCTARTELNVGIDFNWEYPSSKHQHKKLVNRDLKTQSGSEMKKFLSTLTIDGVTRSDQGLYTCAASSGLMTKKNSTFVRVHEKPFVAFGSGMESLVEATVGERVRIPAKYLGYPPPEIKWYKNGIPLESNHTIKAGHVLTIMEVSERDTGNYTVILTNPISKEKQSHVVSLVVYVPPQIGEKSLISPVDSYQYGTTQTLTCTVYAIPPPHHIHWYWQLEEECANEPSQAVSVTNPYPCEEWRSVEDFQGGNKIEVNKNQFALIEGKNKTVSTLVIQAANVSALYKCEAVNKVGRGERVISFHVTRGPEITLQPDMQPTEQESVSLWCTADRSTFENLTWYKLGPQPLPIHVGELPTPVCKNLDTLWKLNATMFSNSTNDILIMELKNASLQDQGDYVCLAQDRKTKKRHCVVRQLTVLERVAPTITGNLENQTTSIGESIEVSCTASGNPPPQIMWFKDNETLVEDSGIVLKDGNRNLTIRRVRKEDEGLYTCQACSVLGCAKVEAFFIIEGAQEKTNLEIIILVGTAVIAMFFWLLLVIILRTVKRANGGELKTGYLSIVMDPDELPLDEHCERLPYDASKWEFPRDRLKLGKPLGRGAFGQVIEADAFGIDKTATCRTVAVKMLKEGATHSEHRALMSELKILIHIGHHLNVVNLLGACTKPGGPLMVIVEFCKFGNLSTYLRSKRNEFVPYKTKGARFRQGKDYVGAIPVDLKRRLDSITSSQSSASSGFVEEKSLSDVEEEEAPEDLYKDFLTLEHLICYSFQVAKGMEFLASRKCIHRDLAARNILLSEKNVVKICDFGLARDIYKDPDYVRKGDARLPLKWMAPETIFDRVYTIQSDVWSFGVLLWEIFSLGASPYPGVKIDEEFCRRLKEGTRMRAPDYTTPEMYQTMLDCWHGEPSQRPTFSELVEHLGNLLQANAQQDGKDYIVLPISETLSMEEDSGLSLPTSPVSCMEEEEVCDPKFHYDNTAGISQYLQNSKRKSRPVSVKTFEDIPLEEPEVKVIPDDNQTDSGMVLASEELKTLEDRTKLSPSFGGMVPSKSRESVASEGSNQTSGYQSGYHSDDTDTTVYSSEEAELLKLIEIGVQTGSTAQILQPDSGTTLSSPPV

SMILES: COc1cc(OC)cc(N(CC#Cc2ncccc2OC)c2ccc3ncc(-c4cnn(C)c4)nc3n2)c1 [Compound 26]
- IC50 (KDR (h)): 501 nM
- melting point: 190 °C
- IC50 [1]: > 10000 nM
- BAF3-FLT3 (MIN IL3) pIC50 [2]: <5
- BAF3-KDR (MIN IL3) pIC50 [3]: <5
